Measured values published in patent publication US20240093191A1, “COMPOSITIONS AND METHODS FOR TREATING DISEASE ASSOCIATED WITH DUX4 OVEREXPRESSION” (RESEARCH INSTITUTE AT NATIONWIDE CHILDREN'S HOSPITAL, priority 2021, published 2024).

Columns and labels:
TRIM43 [1] = assay: ddPCR of TRIM43 in drug-treated DUX4-transfected HEK293 cells; type: cell-based, human; conditions: for TRIM43 (% decrease): vs ethanol vehicle
Description: (§1) Digital Droplet PCR (ddPCR). For mir-675 and mi405 constructs, RNA extraction was carried out as described for QPCR above. For cDNA synthesis, the TaqMan advanced cDNA synthesis kit (Thermo Fisher) was used and cDNA was prepared by following manufacturer's instructions. ddPCR was carried out using 1× ddPCR Supermix for probes (No dUTP) (Bio-Rad), 1× commercially available mir-675 advanced TaqMan probe, or a custom made mi405 advanced TaqMan probe (ThermoFisher) and 50 ng of cDNA. For DUX4 cDNA synthesis, the High-Capacity cDNA Reverse Transcription Kit (Applied Biosystems) was used according to manufacturer's instructions. Within the same cDNA reaction, 1×RT random hexamer primers and 25 pmoles of the Oligo(dT) primer were used to generate cDNA for DUX4 and DUX4-responsive biomarkers and for mouse Rpl13A, used as a reference gene. To quantify DUX4, the ddPCR reaction mixture (20 μL) contained 1× ddPCR Evagreen Supermix (Bio-Rad), 1 μM of forward and reverse DUX4 primers (Sharma et al., J Genet Syndr Gene Ther 2016 August; 7(4):303. doi: 10.4172/2157-7412.1000303. Epub 2016 Aug. 8), and 50 ng of cDNA. To quantify Rpl13A and DUX4-responsive biomarkers (Trim36 and Wfdc3), the 1× ddPCR Supermix for probes (No dUTP) and TaqMan specific probes were used for each of the genes. Droplets were generated using the Automatic Droplet generator QX200 AutoDG (Bio-Rad), the reactions were amplified in a C1000 Touch™ Thermal Cycler with 96-Deep Well Reaction Module (Bio-Rad). Cycling conditions were set up following the QX200 ddPCR Evagreen Supermix protocol. All assays are compatible with an annealing temperature of 58° C. Droplets were then read using the QX200 droplet reader (Bio-Rad). Finally, data were analyzed using the QuantaSoft analysis software (Bio-Rad). For quantification, each reaction of 20 μL was estimated to give at least 10,000 acceptable droplets.
(§2) Three small molecule candidates (β-estradiol, a combination of β-estradiol+medroxyprogesterone acetate (MPA), and melatonin) were tested for their ability to upregulate mir-675-5p in HEK293 cells and in human myotubes. HEK293 cells normally express minimal amounts of mir-675. HEK293 cells were treated with (1) 20 μM β-estradiol alone; (2) 10 μM or 20 μM β-estradiol+MPA; or (3) 20 μM or 40 μM melatonin. 24 hours after treatment, mir-675-5p expression was measured by Droplet Digital PCR (ddPCR).
In FIG. 28, β-estradiol, medroxyprogesterone acetate (MPA) and melatonin increased mir-675 expression and reduced the expression of DUX4 and DUX4-induced biomarker TRIM43 in HEK293 cells. Droplet Digital PCR (ddPCR) was carried out to measure mir-675-5p, DUX4 and TRIM43 levels. HEK293 cells were transfected with DUX4 and were treated with two drugs individually (i.e., β-estradiol and melatonin) or with a combination of β-estradiol and MPA at 10, 20 or 40 μM at the time of transfection. The effects of these drugs were evaluated by comparison to ethanol (vehicle)-treated cells. Numbers correspond to n=3 independent experiments (ANOVA, P<0.0001). The quantification (percent change) of gene expression from HEK293 cells treated with β-estradiol, β-estradiol+MPA, or melatonin was measured using droplet digital PCR (ddPCR) and is reported in Table 3 set out below. Anti-mir-675 is an antagomiR targeting the mature sequence of mir-675-5p, inhibiting its function as inhibitor of DUX4 gene expression. CMV.DUX4-mir-675Res is an expression plasmid encoding a DUX4 mutant sequence. […]

mir-675 = conditions: published gene expression studies; cited from earlier work
DUX4 [2] = assay: ddPCR of DUX4 in drug-treated FSHD myotubes; type: cell-based, human; conditions: for DUX4 (% decrease): 20 μM
Excerpt: (§3) Primary Cell Culture. 15A, 17A sand 18A FSHD human myoblasts and 15V control human myoblasts were provided by the UMMS Wellstone Center for FSHD and have been previously characterized [Jones et al., Hum. Mol. Genet. 21: 4419-4430 (2012)]. Previously immortalized 15A cell lines have a single 4qA permissive allele. […] 15V cell lines have two 4qB non-permissive alleles. Cells were propagated by feeding them every two days with new LHCN medium [4:1 DMEM:Medium 199 (Gibco) supplemented with 15% characterized FBS (Corning), 0.02 M HEPES (Thermo Fisher), 0.03 μg/mL ZnSO4 (Honeywell Fluka), 1.4 μg/mL Vitamin B12 (Sigma-Aldrich), 0.055 μg/mL dexamethasone (Sigma-Aldrich), 1% antibiotics/antimycotics (Gibco), 2.5 ng/mL hepatocyte growth factor (Millipore) and 10 ng/mL basic fibroblast growth factor (Millipore)]. For differentiation, myoblasts were switched to a differentiation medium [4:1 DMEM: Medium 199 (Gibco) supplemented with 15% KnockOut Serum Replacement (ThermoFisher Scientific), 2 mM L-glutamine (Gibco), 1% antibiotics/antimycotics (Gibco), 1 mM sodium pyruvate (Gibco) and 20 mM HEPES (ThermoFisher Scientific)] when cells were at >90% confluency. Before adding differentiation medium, cells were washed with PBS (Gibco). Cells were seeded with new differentiation medium every three days for up to 7 days. To detach cells, TrypLE™ Express, phenol red (ThermoFisher Scientific) was used.
as §1
(§4) Next, the effects of the three treatment regimens were tested on the expression of endogenous mir-675-5p, DUX4 and TRIM43 in 15A, 17A and 18A FSHD differentiated muscle cell lines (myotubes) (FIG. 29 and Table 4). […] Mol. Genet. 21: 4419-30 (2012)]. In FIG. 29, β-estradiol, medroxyprogesterone acetate (MPA) and melatonin increased mir-675 expression and reduced the expression of DUX4 and the DUX4-induced biomarker TRIM43 in three FSHD affected myotube lines. Droplet digital PCR (ddPCR) was used to measure mir-675-5p, DUX4 and TRIM43 levels in 15A (A), 17A (B) and 18A (C) FSHD affected myotubes five days after differentiation. […]

mir-675-5p [3] = assay: ddPCR of mir-675-5p in drug-treated FSHD myotubes; type: cell-based, human; conditions: 20 μM
Excerpt: as §3, §1, §4

TRIM43 [4] = assay: ddPCR of TRIM43 in drug-treated FSHD myotubes; type: cell-based, human; conditions: for TRIM43 (% decrease): 20 μM; for reduction of TRIM43 expression: 18A FSHD myotubes, 40 μM, added 4th day, collected 5th day of differentiation
Excerpt: as §3, §1, §4

mir-675-5p [5] = assay: ddPCR of mir-675-5p in drug-treated DUX4-transfected HEK293 cells; type: cell-based, human; conditions: vs ethanol vehicle
Description: as §1
as §2, with “HEK293 cells were treated with (1) 20 μM β-estradiol alone; (2) 10 μM or 20 μM β-estradiol+MPA; or (3) 20 μM or 40 μM melatonin.” left out
In FIG. 28, β-estradiol, medroxyprogesterone acetate (MPA) and melatonin increased mir-675 expression and reduced the expression of DUX4 and DUX4-induced biomarker TRIM43 in HEK293 cells. […] The effects of these drugs were evaluated by comparison to ethanol (vehicle)-treated cells. […] The quantification (percent change) of gene expression from HEK293 cells treated with β-estradiol, β-estradiol+MPA, or melatonin was measured using droplet digital PCR (ddPCR) and is reported in Table 3 set out below. […]

DUX4 [6] = assay: ddPCR of transfected DUX4 in drug-treated HEK293 cells; type: cell-based, human; conditions: vs ethanol vehicle
Description: as §1, with “Cycling conditions were set up following the QX200 ddPCR Evagreen Supermix protocol. All assays are compatible with an annealing temperature of 58° C.” left out
Three small molecule candidates (β-estradiol, a combination of β-estradiol+medroxyprogesterone acetate (MPA), and melatonin) were tested for their ability to upregulate mir-675-5p in HEK293 cells and in human myotubes. […] 24 hours after treatment, mir-675-5p expression was measured by Droplet Digital PCR (ddPCR). […]

ZSCAN4 = assay: ddPCR of ZSCAN4 in drug-treated 18A FSHD myotubes; type: cell-based, human; conditions: 40 μM, added 4th day, collected 5th day of differentiation
Description: 18A FSHD affected muscles cell lines were treated with increasing concentrations of Pyrazinamide or Sorafenib at the 4th day of differentiation into myotubes. Cells were collected at the 5th day of differentiation. RNA was extracted and ddPCR gene expression analysis on DUX4, TRIM43 and ZSCAN4 was carried out. As a result, 40 μM of Pyrazinamide reduced TRIM43 and ZSCAN4 expression by 35±7% (ANOVA, P=0.0378, N=3 independent experiments) and 42±6% (ANOVA, P=0.0043, N=3 independent experiments), respectively (FIG. 35). Sorafenib reduced DUX4, TRIM43 and ZSCAN4 expression in a dose dependent manner, where it reached maximum inhibition when used at a concentration of 40 μM. At the latter, Sorafenib reduced DUX4, TRIM43 and ZSCAN4 expression by 40±10% (ANOVA, P=0.0486, N=3 independent experiments), 70±4% (ANOVA, P=0.0003, N=3 independent experiments) and 68±3% (ANOVA, P=0.0001, N=3 independent experiments), respectively (FIG. 35).

SMILES	TRIM43 (% decrease) (TRIM43 [1]; 20 μM, HEK293)	mir-675 expression (mir-675)	DUX4 (% decrease) (DUX4 [2]; 15A 5DD myotubes, N = 6)	DUX4 (% decrease) (DUX4 [2]; 17A 5DD myotubes, N = 3)	DUX4 (% decrease) (DUX4 [2]; 18A 5DD myotubes, N = 3)	mir-675-5p (% increase) (mir-675-5p [3]; 15A 5DD myotubes, N = 6)	mir-675-5p (% increase) (mir-675-5p [3]; 17A 5DD myotubes, N = 3)	mir-675-5p (% increase) (mir-675-5p [3]; 18A 5DD myotubes, N = 3)	TRIM43 (% decrease) (TRIM43 [4]; 15A 5DD myotubes, N = 6)	TRIM43 (% decrease) (TRIM43 [4]; 17A 5DD myotubes, N = 3)	TRIM43 (% decrease) (TRIM43 [4]; 18A 5DD myotubes, N = 3)	mir-675-5p (% increase) (mir-675-5p [5]; 20 μM)	DUX4 (% decrease) (DUX4 [6]; 20 μM)	reduction of TRIM43 expression (TRIM43 [4])	reduction of ZSCAN4 expression (ZSCAN4)	also measured
COc1ccc2[nH]cc(CCNC(C)=O)c2c1 [Melatonin, melatonin]	52 ± 01%	mir-675 was induced	88 ± 40 | **, %	55 ± 09 | *, %	38 ± 17 | *, %	44 ± 16 | *, %	48 ± 09 | **, %	154 ± 59 | *, %	75 ± 45 | *, %	30 ± 12 | *, %	70 + 15 | ***, %	229 ± 53%	90 ± 01%			+anti-mir-675 (300 nM) TRIM43 (% increase) (TRIM43 [1]; 20 μM, HEK293, co-transfected anti-mir-675 300 nM): 21 ± 01%; TRIM43 (% decrease) (TRIM43 [1]; 40 μM, HEK293): 58 ± 01%; +CMV.DUX4-mir-675Res TRIM43 (% decrease) (TRIM43 [1]; 40 μM, HEK293 transfected with CMV.DUX4-mir-675Res): 0.1 ± 16%; mir-675-5p (% increase) (mir-675-5p [5]; 40 μM): 246 ± 53%; DUX4 (% decrease) (DUX4 [6]; 40 μM): 93 ± 01%
NC(=O)c1cnccn1 [Pyrazinamide, pyrazine-2-carboxamide]		upregulated mir-675 expression												35±7%	42±6%	
CNC(=O)c1cc(Oc2ccc(NC(=O)Nc3ccc(Cl)c(C(F)(F)F)c3)cc2)ccn1 [Sorafenib, 4-[4-[[4-chloro-3-(trifluoromethyl)phenyl]carbamoylamino]phenoxy]-N-methylpyridine-2-carboxamide]		upregulated mir-675 expression												70±4%	68±3%	reduction of DUX4 expression (DUX4 [2]; 18A FSHD myotubes, 40 μM, added 4th day, collected 5th day of differentiation): 40±10%
C[C@]12CC[C@@H]3c4ccc(O)cc4CC[C@H]3[C@@H]1CC[C@@H]2O [β-estradiol]	significant decrease		70 ± 38 | *, %	63 ± 19 | *, %	49 ± 19 | *, %	47 ± 11 | *, %	38 ± 09 | *, %	382 ± 44 | ***, %	46 ± 40 | NS, %	31 ± 12 | *, %	57 ± 07 | ** , %	92 ± 34%	significant decrease			mir-675-5p (% increase) (mir-675-5p [5]; 10 μM): 22 ± 06%
